In US10718770B2, “Methods for screening compounds for treating or preventing a viral infection or a virus-related condition” (ABIVAX, priority 2015, dated 2020):

Columns and labels:
PBMCs = experiment: Lymphocyte populations in treated PBMCs; type: cell-based, human
YU2 HIV-1 virus = experiment: Humanized mice infected with YU2 HIV-1 virus, viral load; type: in vivo, mouse (NSG humanized); settings: after 30 days of 40 mg/kg daily
Procedure: FIG. 7. Efficacy of Compound 1 to inhibit viral replication in humanized mice. A) Reconstituted SCID mice were infected with JRCSF HIV-1 strain by intraperitoneal injection. Control group received by gavage labrafil and 5% DMSO (n=15) and treated group 20 mg/kg b.i.d of Compound 1 in labrafil and 5% DMSO (n=14) for 15 days. Two independent experiments were performed with 5 and 10 reconstituted mice for each group. Viral load was assessed by measuring viral RNA using the Amplicor HIV-1 Monitor from Roche. B) FACS analysis was performed on peritoneal wash at day 15 post-treatment to assess the CD8/CD4 ratio. C) Engrafted NSG humanized mice were treated by oral gavage with Compound 1 at either 20 mg or 40 mg/kg once a day for 30 days and indicated lymphocyte populations (CD45+; CD4+ and CD8+) were monitored by FACS analysis. […] Viral load was assessed by measuring viral RNA using the Amplicor HIV-1 Monitor from Roche. […]
Briefly, newborn (<5 days old) NSG mice received sub-lethal (1 Gy) total body irradiation with a Cs source, and then received […] transduced or untransduced CD34+ human HSCs using a 50 μl Hamilton syringe via the intrahepatic (i.h.) route. […] Mice were monitored three times a week for symptoms or signs of adverse events, according to a standard score sheet. […]

[1] = tested on: Rev-mediated export of viral RNA; experiment: HIV reporter system (MS2-GFP) in HeLa cells: Rev-mediated export of viral RNA; type: cell-based; settings: in the absence of Rev, data not shown
Excerpt: FIG. 8. Compound 1 influences Rev-mediated HIV RNA biogenesis and export. A) Schematic representation of the HIV-1 reporter gene B) Visualization of GFP-MS2-Bound RNA in HeLa cells expressing tat, MS2-GFP and HIV-reporter transcripts in non transfected or transfected cells with Rev. Rev-transfected cells were untreated (DMSO) or treated with Compound 1. Arrow indicates transcription site. C) Quantitation of images corresponding to untreated (DMSO) or treated (Compound 1) in (B), in terms of: total GFP (upper panel) expressed in RFU or Relative Fluorescence Units; in the nucleoplasm (middle panel) expressed in Number of Foci in Rev-transfected cells; or at the start site (lower panel) expressed as a percentage of nuclei with a starting transcription point. Box-plots show the average GFP intensity (foci numbers or starting transcription point numbers) of Rev-transfected HeLa cells for each condition. Whiskers correspond to the minimum and maximum, boxes, to the 25-75 percentiles and the band inside the box, to the median. […]
Cells plated on cover slips were fixed for 10 min in 3.7% formaldehyde (in PBS) followed by a 2-min permeabilization with 0.1% Triton X-100 (in PBS) and incubation in PBS containing 0.1% bovine serum albumin. […] Cells were washed in PBS mounted with DAKO mounting medium and observed under the fluorescence microscope. […]

## FC(F)(F)Oc1ccc(Nc2ccc3cccc(Cl)c3n2)cc1 [Compound 1, 8-chloro-N-(4-(trifluoromethoxy)phenyl)quinolin-2-amine]
PBMCs
  effect on the different populations of lymphocytes present in PBMCs: did not alter
YU2 HIV-1 virus
  time the viral load remained low after treatment termination: at least 50 days
[1]
  effect on reporter cells: no effect
